Data on 14 compounds can be found in US20250368666A1, “INDAZOLE COMPOUNDS” (TYRA BIOSCIENCES, INC., priority 2022, published 2025).

A word on the Kd: it is the equilibrium constant for the complex coming apart. As a reminder, the IC50 is the point on the concentration scale where inhibition reaches its midpoint. A higher IC50 goes with weaker potency.

The target of one test is T1, FGFR2 (Homo sapiens, UniProt P21802).
T1 construct: made in house; host or cells: E. coli (BL21-derived), T7 phage
T1 sequence (P21802 22-821): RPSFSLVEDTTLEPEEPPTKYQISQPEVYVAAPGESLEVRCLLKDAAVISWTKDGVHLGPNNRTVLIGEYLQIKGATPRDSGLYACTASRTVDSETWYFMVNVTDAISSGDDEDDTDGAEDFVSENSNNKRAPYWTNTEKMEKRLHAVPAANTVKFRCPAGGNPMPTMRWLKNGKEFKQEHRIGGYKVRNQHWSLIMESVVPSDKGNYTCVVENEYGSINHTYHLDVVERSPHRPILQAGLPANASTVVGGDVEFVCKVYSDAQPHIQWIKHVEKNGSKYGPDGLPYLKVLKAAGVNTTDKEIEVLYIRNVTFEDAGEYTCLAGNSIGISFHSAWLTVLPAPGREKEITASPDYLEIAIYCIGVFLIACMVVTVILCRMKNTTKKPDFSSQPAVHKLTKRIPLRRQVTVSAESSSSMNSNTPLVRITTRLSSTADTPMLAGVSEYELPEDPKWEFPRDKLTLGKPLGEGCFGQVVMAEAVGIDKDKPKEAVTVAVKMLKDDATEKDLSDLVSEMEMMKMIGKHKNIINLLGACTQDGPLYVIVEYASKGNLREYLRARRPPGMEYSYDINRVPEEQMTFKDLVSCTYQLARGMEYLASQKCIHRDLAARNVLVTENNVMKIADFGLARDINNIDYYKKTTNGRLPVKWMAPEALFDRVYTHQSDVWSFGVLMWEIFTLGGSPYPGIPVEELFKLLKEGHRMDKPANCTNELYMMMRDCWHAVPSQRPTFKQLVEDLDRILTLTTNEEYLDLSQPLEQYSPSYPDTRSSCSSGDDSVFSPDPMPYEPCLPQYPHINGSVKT
Briefly: Kinase binding assay (kinase-tagged T7 phage, affinity beads, qPCR), Kd. Particulars: read-out: FGFR2 (Kd nM). In outline:
(§1)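 Phage-tagged kinase capture on small-molecule affinity resin, compound competition, qPCR quantitation; Kd from Levenberg-Marquardt Hill fit.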

The target of a further test is T2, FGFR3 (Homo sapiens, UniProt P22607).
T2 construct: made in house; host or cells: E. coli (BL21-derived), T7 phage
T2 sequence (P22607 23-806): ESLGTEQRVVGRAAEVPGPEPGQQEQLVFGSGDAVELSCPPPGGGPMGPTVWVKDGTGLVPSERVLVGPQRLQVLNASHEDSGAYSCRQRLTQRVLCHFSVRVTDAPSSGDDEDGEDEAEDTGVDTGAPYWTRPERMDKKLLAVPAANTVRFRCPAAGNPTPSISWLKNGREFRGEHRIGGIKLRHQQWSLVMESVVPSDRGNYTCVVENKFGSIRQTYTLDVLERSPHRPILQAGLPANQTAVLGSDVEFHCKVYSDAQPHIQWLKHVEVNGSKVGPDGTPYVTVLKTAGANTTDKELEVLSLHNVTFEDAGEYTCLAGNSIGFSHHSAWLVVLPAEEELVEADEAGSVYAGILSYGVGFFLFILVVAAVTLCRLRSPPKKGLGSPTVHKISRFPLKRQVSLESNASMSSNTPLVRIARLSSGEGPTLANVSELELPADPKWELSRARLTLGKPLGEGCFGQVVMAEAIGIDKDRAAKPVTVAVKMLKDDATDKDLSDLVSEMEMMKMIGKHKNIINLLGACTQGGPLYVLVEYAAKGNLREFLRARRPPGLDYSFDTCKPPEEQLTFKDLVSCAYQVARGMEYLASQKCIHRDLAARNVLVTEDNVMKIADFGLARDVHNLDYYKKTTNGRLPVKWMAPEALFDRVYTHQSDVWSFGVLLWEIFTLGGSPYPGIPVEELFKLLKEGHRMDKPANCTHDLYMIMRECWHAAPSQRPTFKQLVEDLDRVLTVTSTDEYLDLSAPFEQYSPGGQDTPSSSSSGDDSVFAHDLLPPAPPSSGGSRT
Described as above. Particulars: read-out: FGFR3 (Kd nM). In outline: as §1

A further test has as its target T3, FGFR4 (Homo sapiens, UniProt P22455).
T3 construct: made in house; host or cells: E. coli (BL21-derived), T7 phage
Described as above. Particulars: read-out: FGFR4 (Kd nM). In outline:
as §1

A further test deals with T4, FGFR1 (Homo sapiens, UniProt P11362).
T4 construct: made in house; host or cells: E. coli (BL21-derived), T7 phage
T4 sequence (P11362 22-822): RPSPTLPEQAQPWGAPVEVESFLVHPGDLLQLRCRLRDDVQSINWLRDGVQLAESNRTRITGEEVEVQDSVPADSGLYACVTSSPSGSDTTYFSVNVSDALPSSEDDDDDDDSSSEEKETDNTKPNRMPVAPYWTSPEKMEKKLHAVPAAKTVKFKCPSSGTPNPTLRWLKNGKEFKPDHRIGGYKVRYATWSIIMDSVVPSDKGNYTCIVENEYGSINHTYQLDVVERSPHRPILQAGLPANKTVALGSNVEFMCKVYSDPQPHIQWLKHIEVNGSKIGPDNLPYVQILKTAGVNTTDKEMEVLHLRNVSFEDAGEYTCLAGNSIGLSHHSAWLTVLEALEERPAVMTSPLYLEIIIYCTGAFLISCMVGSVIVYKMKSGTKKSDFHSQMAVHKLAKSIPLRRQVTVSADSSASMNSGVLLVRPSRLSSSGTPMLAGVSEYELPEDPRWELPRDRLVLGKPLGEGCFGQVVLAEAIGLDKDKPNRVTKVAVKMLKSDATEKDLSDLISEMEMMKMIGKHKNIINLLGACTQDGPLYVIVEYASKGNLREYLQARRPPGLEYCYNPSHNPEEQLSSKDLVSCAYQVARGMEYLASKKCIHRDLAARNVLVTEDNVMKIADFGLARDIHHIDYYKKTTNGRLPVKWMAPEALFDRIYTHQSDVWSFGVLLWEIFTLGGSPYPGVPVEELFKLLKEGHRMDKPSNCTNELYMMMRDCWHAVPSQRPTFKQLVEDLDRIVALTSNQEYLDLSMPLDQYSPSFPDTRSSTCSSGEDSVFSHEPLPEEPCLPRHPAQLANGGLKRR
The description is as above. Particulars: read-out: FGFR1 (Kd nM). The method in brief:
as §1

In the next test the target is T5, FGFR3 (V555M) (Homo sapiens, UniProt P22607, V555M).
T5 construct: made in house; host or cells: E. coli (BL21-derived), T7 phage
T5 sequence (P22607 23-806 V555M): as the sequence (P22607 23-806) above, with V533M counted along it
The description is as above. Particulars: V555M mutant; read-out: FGFR3 (V555M) (Kd nM). The method in brief:
as §1

Test [1] relates to HuH7 cell line (FGF19 amplification). As to the kind of experiment: Cancer cell line cell viability assay (Cell Titer-Glo), 120 hr. Format: cell-based. Particulars: Homo sapiens, Huh-7. The source says:
Experimental Purpose: To detect the change of intracellular ATP by Cell Titer-Glo® and to evaluate the inhibitory effect of the compounds on cancer cell lines by determining the in vitro IC50 value of the compounds.
Cell Titer-Glo® 2.0 Luminescent cell viability assay reagent was purchased from Promega (Madison, WI). KG-1, KATO-III, and MDA-MB-453 cell lines were purchased from American Type Culture Collection (Manassas, VA). RT112/84 cell line was purchased from Millipore-Sigma (St. Louis, MO). HuH7 cells were purchased from Seikisui Xenotech (Kansas City, KS). RT112/84 and MDA-MB-453 cells were cultured in RPMI1640 media supplemented with 10% fetal bovine serum. KG-1 and KATO-III cell lines were cultured in IMDM media supplemented with 20% FBS. HuH7 cells were cultured in IMDM media supplemented with 10% FBS. Cultures were maintained at 37° C. in a humidified atmosphere of 5% CO2 and 95% air.
Cell Viability Assay Procedure: Cells were plated in 96-well clear bottom/white plates (Corning #3903) at a range of densities depending on the optimal assay window (5,000-20,000 cells/well in […] of media), incubated overnight. The next day, test compound DMSO stock solutions were made at 10 mM and […] final concentration. Compounds were then added to cells in a 9-dose, 4-fold dilution series starting at 3 μM with an HP 300e Digital Dispenser (each dose was applied in triplicate). DMSO was backfilled to each well up to 301 nL total volume of test compound+DMSO, and a total of 301 nL DMSO was added to a control/no test compound well in triplicate. The cells in cell culture plates were incubated with the compounds at 37° C. and 5% CO2 for 72 hours-120 hours depending on the cell line. Then 50 μl of Cell Titer Glo 2.0 reagent was added to each well of the cell culture plates. The contents were covered from light and mixed on an orbital shaker at room temperature for minimum of 10 min. Luminescence was recorded by a Clariostar Plus Microplate Reader (BMG Labtech, Cary, NC). Cells were assessed as a percentage of DMSO only treated control cells. Curves were plotted and IC50 values were calculated using the GraphPad Prism 9 program based on a sigmoidal dose-response equation (log (inhibitor) vs. response—Variable slope, 4-parameter).
(In general: In ATP-based viability assays light output follows the ATP content of the culture.)

The structures appear in SMILES notation.

T3 sequence (P22455 22-802): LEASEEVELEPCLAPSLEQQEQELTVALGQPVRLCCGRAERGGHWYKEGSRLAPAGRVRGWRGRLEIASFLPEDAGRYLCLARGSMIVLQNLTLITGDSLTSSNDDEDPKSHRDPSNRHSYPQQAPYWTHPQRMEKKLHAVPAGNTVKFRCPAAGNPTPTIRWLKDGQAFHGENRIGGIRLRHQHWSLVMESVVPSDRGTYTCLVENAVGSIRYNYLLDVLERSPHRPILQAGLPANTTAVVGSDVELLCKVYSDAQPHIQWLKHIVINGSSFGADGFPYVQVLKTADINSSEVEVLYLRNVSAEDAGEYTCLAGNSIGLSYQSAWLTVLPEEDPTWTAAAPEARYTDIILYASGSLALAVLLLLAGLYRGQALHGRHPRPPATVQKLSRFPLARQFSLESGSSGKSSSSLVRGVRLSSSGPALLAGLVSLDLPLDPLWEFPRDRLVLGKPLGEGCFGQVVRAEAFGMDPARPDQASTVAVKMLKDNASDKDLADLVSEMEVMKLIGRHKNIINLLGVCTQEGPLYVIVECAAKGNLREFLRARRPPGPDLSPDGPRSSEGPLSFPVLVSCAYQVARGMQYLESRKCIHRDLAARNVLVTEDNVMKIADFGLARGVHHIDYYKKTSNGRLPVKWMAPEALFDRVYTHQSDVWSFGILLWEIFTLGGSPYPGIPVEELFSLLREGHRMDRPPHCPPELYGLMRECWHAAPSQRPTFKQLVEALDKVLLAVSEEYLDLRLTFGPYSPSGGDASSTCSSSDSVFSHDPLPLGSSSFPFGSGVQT

`CNC1(C)CN(c2ncc(-c3n[nH]c4ccc(O[C@H](C)c5c(Cl)cnc(C)c5Cl)cc34)cc2C#N)C1` [Example 32, 5-[5-[(1R)-1-(3,5-dichloro-2-methyl-4-pyridyl)ethoxy]-1H-indazol-3-yl]-2-[3-methyl-3-(methylamino)azetidin-1-yl]pyridine-3-carbonitrile]: the Kd on FGFR2 fell in the range of 50 to 300 nM; on FGFR3, 1 to 50 nM; at FGFR4 it was 1 to 50 nM; on FGFR1, 1 to 50 nM; at FGFR3 (V555M), 1 to 50 nM. The compound further showed a half-maximal inhibitory concentration (IC50) in test [1] of 50 to 200 nM.
In the case of `C[C@@H](Oc1cc2c(-c3cnc(N4CC(C)(N5CCOCC5)C4)c(C#N)c3)n[nH]c2cc1F)c1c(Cl)cncc1Cl` [Example 124, (R)-5-(5-(1-(3,5-dichloropyridin-4-yl)ethoxy)-6-fluoro-1H-indazol-3-yl)-2-(3-methyl-3-morpholinoazetidin-1-yl)nicotinonitrile], the equilibrium dissociation constant (Kd) on FGFR2 is 50 to 300 nM; at FGFR3, 1 to 50 nM; at FGFR4 it was 1 to 50 nM; at FGFR1, 50 to 300 nM; at FGFR3 (V555M), 1 to 50 nM. This compound came in with an IC50 in test [1] of 50 to 200 nM.
In the case of `C[C@@H](Oc1ccc2[nH]nc(-c3cnc(N4CC(C)(CNS(C)(=O)=O)C4)c(C#N)c3)c2c1)c1c(Cl)cncc1Cl` [Example 18, (R)-N-((1-(3-cyano-5-(5-(1-(3,5-dichloropyridin-4-yl)ethoxy)-1H-indazol-3-yl)pyridin-2-yl)-3-methylazetidin-3-yl)methyl)methane-sulfonamide], the Kd was in the range of 50 to 300 nM at FGFR2; 1 to 50 nM on FGFR3; 1 to 50 nM at FGFR4; 50 to 300 nM at FGFR1; 1 to 50 nM at FGFR3 (V555M). Moreover, the IC50 in test [1] lay in the range of 0.1 to 50 nM.
Consider `C[C@@H](Oc1cc2c(-c3cnc(N4CC(C)(CN5CCOCC5)C4)c(C#N)c3)n[nH]c2cc1F)c1c(Cl)cncc1Cl` [Example 137, (R)-5-(5-(1-(3,5-dichloropyridin-4-yl)ethoxy)-6-fluoro-1H-indazol-3-yl)-2-(3-methyl-3-(morpholinomethyl)aze-tidin-1-yl)nicotinonitrile], for which the Kd on FGFR2 lay within 50 to 300 nM; on FGFR3, 1 to 50 nM; at FGFR4, 1 to 50 nM; on FGFR1, 50 to 300 nM; on FGFR3 (V555M), 1 to 50 nM. The same compound registered an IC50 in test [1] of 50 to 200 nM.
For the compound `Cc1ncc(Cl)c([C@@H](C)Oc2ccc3[nH]nc(-c4cnc(N5CC(C)(OC6CCC6)C5)c(C#N)c4)c3c2)c1Cl` [Example 46, (R)-2-(3-Cyclobutoxy-3-methylazetidin-1-yl)-5-(5-(1-(3,5-dichloro-2-methyl-pyridin-4-yl)ethoxy)-1H-indazol-3-yl)nicotinonitrile], the Kd is more than 1000 nM at FGFR2; 300 to 1000 nM at FGFR3; 1 to 50 nM on FGFR4; more than 1000 nM on FGFR1; 50 to 300 nM on FGFR3 (V555M). In test [1], this compound returned an IC50 of more than 1000 nM.
`C[C@@H](Oc1cc2c(-c3cnc(N4CC(C)(N5CCC5)C4)c(C#N)c3)n[nH]c2cc1F)c1c(Cl)cncc1Cl` [Example 136, (R)-5-(5-(1-(3,5-dichloropyridin-4-yl)ethoxy)-6-fluoro-1H-indazol-3-yl)-2-(3′-methyl-[1,3′-biazetidin]-1′-yl)nicotinonitrile]: the Kd on FGFR2, at FGFR3, at FGFR4, at FGFR1 and on FGFR3 (V555M) was 1 to 50 nM each time. In addition, the concentration for half-maximal inhibition (IC50) in test [1] was 50 to 200 nM.
As for `COc1cc2[nH]nc(-c3cnc(N4C[C@H](CS(C)(=O)=O)[C@H]4C)c(C#N)c3)c2cc1O[C@@H](C)c1c(Cl)cncc1Cl` [Example 335, 5-(5-((S)-1-(3,5-dichloropyridin-4-yl)ethoxy)-6-methoxy-1H-indazol-3-yl)-2-((2R,3S)-2-methyl-3-((meth-ylsulfonyl)meth-yl)azetidin-1-yl)nicotinonitrile], the dissociation constant (Kd) is more than 1000 nM at FGFR2; 300 to 1000 nM at FGFR3; 1 to 50 nM at FGFR4; more than 1000 nM at FGFR1; 300 to 1000 nM at FGFR3 (V555M). The same compound had a half-inhibitory concentration (IC50) in test [1] of 200 to 1000 nM.
As to `Cc1ncc(Cl)c([C@@H](C)Oc2ccc3[nH]nc(-c4cnc(N5CC(C)(N)C5)c(C#N)c4)c3c2)c1Cl` [Example 39, 2-(3-amino-3-methyl-azetidin-1-yl)-5-[5-[(1R)-1-(3,5-dichloro-2-methyl-4-pyridyl)ethoxy]-1H-indazol-3-yl]pyridine-3-carbonitrile], the dissociation constant Kd at FGFR2 lay within 50 to 300 nM; at FGFR3 it was 1 to 50 nM; at FGFR4, 1 to 50 nM; at FGFR1 it was 50 to 300 nM; at FGFR3 (V555M), 1 to 50 nM. Moreover, the IC50 in test [1] was 50 to 200 nM.
Take `CCN(CC)C1(C)CN(c2ncc(-c3n[nH]c4ccc(O[C@H](C)c5c(Cl)cnc(C)c5Cl)cc34)cc2C#N)C1` [Example 36, 5-[5-[(1R)-1-(3,5-dichloro-2-methyl-4-pyridyl)ethoxy]-1H-indazol-3-yl]-2-[3-(diethylamino)-3-methyl-azetidin-1-yl]pyridine-3-carbonitrile]: the dissociation constant Kd was 50 to 300 nM at FGFR2; 1 to 50 nM at FGFR3; 1 to 50 nM at FGFR4; 50 to 300 nM on FGFR1; 1 to 50 nM on FGFR3 (V555M). The compound also gave an IC50 in test [1] of 200 to 1000 nM.
Consider `COc1cc2[nH]nc(-c3cnc(N4CC(C)(NC5CCC5)C4)c(C#N)c3)c2cc1O[C@H](C)c1c(Cl)cncc1Cl` [Example 12, (R)-2-(3-(cyclobutylamino)-3-methylazetidin-1-yl)-5-(5-(1-(3,5-dichloropyridin-4-yl)ethoxy)-6-methoxy-1H-indazol-3-yl)nicotinonitrile], for which the Kd on FGFR2, on FGFR3, on FGFR4, on FGFR1 and on FGFR3 (V555M) was 1 to 50 nM throughout. This compound gave an IC50 in test [1] of 0.1 to 50 nM.
`COc1cc2[nH]nc(-c3cnc(N4CC(C)(NCC5CC5)C4)c(C#N)c3)c2cc1O[C@@H](C)c1c(Cl)cncc1Cl` [Example 333, (S)-2-(3-((cyclopropyl-methyl)amino)-3-methylazetidin-1-yl)-5-(5-(1-(3,5-dichloropyridin-4-yl)ethoxy)-6-methoxy-1H-indazol-3-yl)nicotinonitrile]: the Kd was more than 1000 nM on FGFR2; 50 to 300 nM at FGFR3; 1 to 50 nM on FGFR4; 300 to 1000 nM on FGFR1; 50 to 300 nM on FGFR3 (V555M). Moreover, the half-maximal inhibitory concentration (IC50) in test [1] lay within 200 to 1000 nM.
Regarding `COc1cc2[nH]nc(-c3cnc(N4CC(C)(N5C[C@@H]6C[C@H]5CO6)C4)c(C#N)c3)c2cc1O[C@H](C)c1c(Cl)cncc1Cl` [Example 336, -(3-((1S,4S)-2-oxa-5-aza-bicyclo[2.2.1]hep-tan-5-y1)-3-methylazetidin-1-yl)-5-(5-((R)-1-(3,5-dichloropyridin-4-yl)ethoxy)-6-methoxy-1H-indazol-3-yl)nicotinonitrile], the Kd on FGFR2, at FGFR3, on FGFR4, at FGFR1 and on FGFR3 (V555M) was 1 to 50 nM throughout. This compound came in with an IC50 in test [1] of 0.1 to 50 nM.
In the case of `C[C@@H](Oc1cc2c(-c3cnc(N4CC(C)(CP(C)(C)=O)C4)c(C#N)c3)n[nH]c2cc1F)c1c(Cl)cncc1Cl` [Example 11, (R)-5-(5-(1-(3,5-dichloropyridin-4-yl)ethoxy)-6-fluoro-1H-indazol-3-yl)-2-(3-((dimethylphosphoryl)methyl)-3-methylazetidin-1-yl)nicotinonitrile], the Kd at FGFR2 lay in the range of 1 to 50 nM; on FGFR3, 1 to 50 nM; on FGFR4, 1 to 50 nM; on FGFR1, 50 to 300 nM; on FGFR3 (V555M) it was 1 to 50 nM. The IC50 in test [1] lay in the range of 0.1 to 50 nM.
Turning to `COc1cc2[nH]nc(-c3cnc(N4CC5(CC5)C4)nc3)c2cc1O[C@H](C)c1c(Cl)cncc1Cl` [Example 62, 3-[2-(5-azaspiro[2.3]hexan-5-yl)pyrimidin-5-yl]-5-[(1R)-1-(3,5-dichloro-4-pyridyl)ethoxy]-6-methoxy-1H-indazole], the equilibrium dissociation constant (Kd) on FGFR2, on FGFR3, at FGFR4, on FGFR1 and on FGFR3 (V555M) was 1 to 50 nM each time. The IC50 in test [1] was in the range of 0.1 to 50 nM.
